Read-outs that look alike come from different tables or passages of the source.
Legend:
[1] = system: LNCaP/AR cells; assay: Inhibition of the proliferation of LNCap/AR cells (CCK-8); format: cell-based; conditions: read-out: LNCap/AR IC50
How it was run: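 Proliferation was read by CCK-8 (OD 450 nm, 1 h) after six days of compound exposure. Cells were seeded at 1000 per well overnight, then dosed in duplicate over nine 3-fold steps with a top final concentration of 10 μM in 0.1% DMSO; IC50 was fitted from inhibition curves.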

[2] = system: 22RV1 cells; assay: Inhibition of the proliferation of drug-resistant prostate cancer cell 22RV1 (CCK-8); format: cell-based; conditions: 22RV1 cells (enzalutamide-resistant), same method
How it was run: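 22RV1 cells, 1000/well in RPMI1640 with 10% FBS, treated in duplicate with 9-point 3-fold dilutions from 10 μM (0.1% DMSO final). After 6 days at 37 °C, CCK-8 added for 1 h and OD450 read. IC50 from dose-response inhibition fit.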

[3] = 144 h, LNCaP/AR cells, 6 days culture, CCK-8
[4] = LNCaP/AR cells, 6 days culture, CCK-8

| SMILES | IC50 [1, 3] | IC50 ([2]; Homo sapiens) | IC50 [1, 4] | IC50 [2] | IC50 ([1]; LNCaP/AR, 144 h) |
| --- | --- | --- | --- | --- | --- |
| Cc1ccc(-c2c(C)noc2C)cc1N(CCCOC1CN(c2ccc3c(c2)C(=O)N(C2CCC(=O)NC2=O)C3=O)C1)c1ccc(C2(C#N)CC2)cc1 (stereo not drawn) [Compound 119, 1-(4-((5-(3,5-dimethylisoxazol-4-yl)-2-methylphenyl)(3-((1-(2-(2,6-dioxopiperidin-3-yl)-1,3-dioxoisoindolin-5-yl)azetidin-3-yl)oxy)propyl)amino)phenyl)cyclopropane-1-nitrile] | 101 to 500 nM | > 2000 nM | – | – | – |
| Cc1ccc(-c2c(C)noc2C)cc1N(CCCOC1CN(c2ccc3c(c2)C(=O)N(C2CCC(=O)NC2=O)C3)C1)c1ccc(C2(C#N)CC2)cc1 (stereo not drawn) [Compound 121, 1-(4-((5-(3,5-dimethylisoxazol-4-yl)-2-methylphenyl)(3-((1-(2-(2,6-dioxopiperidin-3-yl)-3-oxoisoindolin-5-yl)azetidin-3-yl)oxy)propyl)amino)phenyl)cyclopropane-1-nitrile] | 101 to 500 nM | < 100 nM | – | – | – |
| Cc1ccc(-c2c(C)noc2C)cc1N(CCCOC1CN(c2ccc3c(c2)CN(C2CCC(=O)NC2=O)C3=O)C1)c1ccc(C2(C#N)CC2)cc1 (stereo not drawn) [Compound 122, 1-(4-((5-(3,5-dimethylisoxazol-4-yl)-2-methylphenyl)(3-((1-(2-(2,6-dioxopiperidin-3-yl)-1-oxoisoindolin-5-yl)azetidin-3-yl)oxy)propyl)amino)phenyl)cyclopropane-1-nitrile] | < 100 nM | < 100 nM | – | – | – |
| Cc1ccc(-c2c(C)noc2C)cc1N(CC1CC2(C1)CN(c1cc3c(cc1F)C(=O)N(C1CCC(=O)NC1=O)C3)C2)c1ccc(C2(C#N)CC2)cc1 (stereo not drawn) [Compound 125, 1-(4-((5-(3,5-dimethylisoxazol-4-yl)-2-methylphenyl)((2-(2-(2-,2,6-dioxopiperidin-3-yl)-6-fluoro-1-oxoisoindolin-5-yl)-2-azaspiro[3.3]heptan-6-yl)methyl)amino)phenyl)cyclopropane-1-carbonitrile] | 501 to 2000 nM | 501 to 2000 nM | – | – | – |
| Cc1ccc(-c2c(C)noc2C)cc1N(CC1CC2(C1)CN(c1cc3c(cc1F)CN(C1CCC(=O)NC1=O)C3=O)C2)c1ccc(C2(C#N)CC2)cc1 (stereo not drawn) [Compound 126, 1-(4-((5-(3,5-dimethylisoxazol-4-yl)-2-methylphenyl)((2-(2-(2-,2,6-dioxopiperidin-3-yl)-6-fluoro-3-oxoisoindolin-5-yl)-2-azaspiro[3.3]heptan-6-yl)methyl)amino)phenyl)cyclopropane-1-carbonitrile] | – | – | 501 to 2000 nM | > 2000 nM | – |
| Cc1ccc(-c2c(C)noc2C)cc1N(CCC1CN(c2cc3c(cc2F)C(=O)N(C2CCC(=O)NC2=O)C3=O)C1)c1ccc(C2(C#N)CC2)cc1 (stereo not drawn) [Compound 130, 1-(4-((5-(3,5-dimethylisoxazol-4-yl)-2-methylphenyl)(2-(1-(2-(2,6-dioxopiperidin-3-yl)-6-fluoro-1,3-dioxoisoindolin-5-yl)azetidin-3-yl)ethyl)amino)phenyl)cyclopropane-1-carbonitrile] | – | – | 101 to 500 nM | < 100 nM | – |
| Cc1ccc(-c2c(C)noc2C)cc1N(C[C@H]1CC[C@H](CNc2ccc3c(c2)C(=O)N(C2CCC(=O)NC2=O)C3=O)CC1)c1ccc(C#N)c(Cl)c1 (stereo partly drawn) [Compound 132, 2-Chloro-4-((5-(3,5-dimethylisoxazol-4-yl)-2-methylphenyl)(((1r,4r)-4-(((2-(2,6-dioxopiperidin-3-yl)-1,3-dioxoisoindolin-5-yl)amino)methyl)cyclohexyl)methyl)amino)benzonitrile] | – | 101 to 500 nM | – | – | > 2000 nM |
| Cc1ccc(-c2c(C)noc2C)cc1N(CC1CCC(CNc2ccc3c(c2)CN(C2CCC(=O)NC2=O)C3=O)CC1)c1ccc(C#N)c(Cl)c1 (stereo not drawn) [Compound 133, 2-Chloro-4-((5-(3,5-dimethylisoxazol-4-yl)-2-methylphenyl)((1r,4r)-4-((2-(2,6-dioxopiperidin-3-yl)-1-oxoisoindolin-5-yl)amino)methyl)cyclohexyl)methyl)amino)benzonitrile] | – | < 100 nM | – | – | < 100 nM |
| Cc1ccc(-c2c(C)noc2C)cc1N(CC1CCC(CNc2ccc3c(c2)C(=O)N(C2CCC(=O)NC2=O)C3)CC1)c1ccc(C#N)c(Cl)c1 (stereo not drawn) [Compound 134, 2-Chloro-4-((5-(3,5-dimethylisoxazol-4-yl)-2-methylphenyl)((1r,4r)-4-((2-(2,6-dioxopiperidin-3-yl)-3-oxoisoindolin-5-yl)amino)methyl)cyclohexyl)methyl)amino)benzonitrile] | – | < 100 nM | – | – | 101 to 500 nM |
| Cc1ccc(-c2c(C)noc2C)cc1N(C[C@H]1CC[C@H](CNc2cc3c(cc2F)CN(C2CCC(=O)NC2=O)C3=O)CC1)c1ccc(C#N)c(Cl)c1 (stereo partly drawn) [Compound 136] | – | 101 to 500 nM | – | – | 501 to 2000 nM |
| Cc1ccc(-c2c(C)noc2C)cc1N(CC1(COC2CN(c3cc4c(cc3F)C(=O)N(C3CCC(=O)NC3=O)C4=O)C2)CC1)c1ccc(C2(C#N)CC2)cc1 (stereo not drawn) [Compound 138, 1-(4-((5-(3,5-dimethylisoxazol-4-yl)-2-methylphenyl)((1-(((1-(2-(2,6-dioxopiperidin-3-yl)-6-fluoro-1,3-dioxoisoindolin-5-yl)azetidin-3-yl)oxy)methyl)cyclopropyl)methyl)amino)phenyl)cyclopropane-1-nitrile] | 101 to 500 nM | > 2000 nM | – | – | – |
| Cc1ccc(-c2c(C)noc2C)cc1N(CC1CN(C2CCN(c3cc4c(cc3F)C(=O)N(C3CCC(=O)NC3=O)C4=O)CC2)C1)c1ccc(C2(C#N)CC2)cc1 (stereo not drawn) [Compound 139, 1-(4-((5-(3,5-dimethylisoxazol-4-yl)-2-methylphenyl)((1-(1-(2-(2,6-dioxopiperidin-3-yl)-6-fluoro-1,3-dioxoisoindolin-5-yl)piperidin-4-yl)azetidin-3-yl)methyl)amino)phenyl)cyclopropane-1-carbonitrile] | > 2000 nM | > 2000 nM | – | – | – |
| Cc1ccc(-c2c(C)noc2C)cc1N(CCCCCOCC(=O)N[C@H](C(=O)N1C[C@H](O)C[C@H]1C(=O)N[C@@H](C)c1ccc(-c2scnc2C)cc1)C(C)(C)C)c1ccc(C2(C#N)CC2)cc1 [Compound 143] | 101 to 500 nM | < 100 nM | – | – | – |
| Cc1ccc(-c2c(C)noc2C)cc1N(CC1CN(C2CCN(c3ccc4c(c3)C(=O)N(C3CCC(=O)NC3=O)C4=O)CC2)C1)c1ccc(C2(C#N)CC2)cc1 (stereo not drawn) [Compound 152] | – | 501 to 2000 nM | – | – | > 2000 nM |
| Cc1ccc(-c2c(C)noc2C)cc1N(CC1CN(C2CN(c3cc4c(cc3F)C(=O)N(C3CCC(=O)NC3=O)C4=O)C2)C1)c1ccc(C2(C#N)CC2)cc1 (stereo not drawn) [Compound 153] | – | – | < 100 nM | < 100 nM | – |
| Cc1ccc(-c2c(C)noc2C)cc1N(CC1CC2(CCN(c3cc4c(cc3F)C(=O)N(C3CCC(=O)NC3=O)C4=O)CC2)C1)c1ccc(C2(C#N)CC2)cc1 (stereo not drawn) [Compound 154] | 501 to 2000 nM | 101 to 500 nM | – | – | – |
| Cc1ccc(-c2c(C)noc2C)cc1N(CC1CN(c2cc3c(cc2F)CN(C2CCC(=O)NC2=O)C3=O)C1)c1ccc(C2(C#N)CC2)cc1 (stereo not drawn) [Compound 155] | > 2000 nM | > 2000 nM | – | – | – |
| Cc1ccc(-c2c(C)noc2C)cc1N(CC1CN(c2cc3c(cc2F)C(=O)N(C2CCC(=O)NC2=O)C3)C1)c1ccc(C2(C#N)CC2)cc1 (stereo not drawn) [Compound 156] | 101 to 500 nM | 501 to 2000 nM | – | – | – |
| Cc1ccc(-c2c(C)noc2C)cc1N(CC1CN(C2CN(c3cc4c(cc3F)C(=O)N(C3CCC(=O)NC3=O)C4)C2)C1)c1ccc(C2(C#N)CC2)cc1 (stereo not drawn) [Compound 158] | – | – | < 100 nM | < 100 nM | – |
| Cc1ccc(-c2c(C)noc2C)cc1N(CC1CCN(C2CN(c3cc4c(cc3F)C(=O)N(C3CCC(=O)NC3=O)C4)C2)CC1)c1ccc(C2(C#N)CC2)cc1 (stereo not drawn) [Compound 160] | > 2000 nM | < 100 nM | – | – | – |
| Cc1ccc(-c2c(C)noc2C)cc1N(CC1CCC(Nc2cc3c(cc2F)C(=O)N(C2CCC(=O)NC2=O)C3=O)CC1)c1ccc(C2(C#N)CC2)cc1 (stereo not drawn) [Compound 161, 1-(4-((5-(3,5-dimethylisoxazol-4-yl)-2-methylphenyl)(((1s,4s)-4-((2-(2,6-dioxopiperidin-3-yl)-6-fluoro-1,3-dicarbonylisoindolin-5-yl)amino)cyclohexyl)methyl)amino)phenyl) phenylcyclopropanecarbonitrile] | > 2000 nM | > 2000 nM | – | – | – |
| Cc1ccc(-c2c(C)noc2C)cc1N(CC1CCC(Nc2cc3c(cc2F)CN(C2CCC(=O)NC2=O)C3=O)CC1)c1ccc(C2(C#N)CC2)cc1 (stereo not drawn) [Compound 162, 1-(4-((5-(3,5-Dimethylisoxazol-4-yl)-2-methylphenyl)(((1s,4s)-4-((2-(2,6-dioxopiperidin-3)-6-fluoro-3-isoindolinone-5-yl)amino)cyclohexyl)methyl)amino)phenyl)phenylcyclopropanecarbonitrile] | – | – | 101 to 500 nM | > 2000 nM | – |
| Cc1ccc(-c2c(C)noc2C)cc1N(CC1CCC(Nc2cc3c(cc2F)C(=O)N(C2CCC(=O)NC2=O)C3)CC1)c1ccc(C2(C#N)CC2)cc1 (stereo not drawn) [Compound 163, 1-(4-((5-(3,5-Dimethylisoxazol-4-yl)-2-methylphenyl)(((1s,4s)-4-((2-(2,6-dioxopiperidin-3)-6-fluoro-1-isoindolinone-5-yl)amino)cyclohexyl)methyl)amino)phenyl)phenylcyclopropanecarbonitrile] | – | – | < 100 nM | > 2000 nM | – |
| Cc1ccc(-c2c(C)noc2C)cc1N(CCCCNc1cc2c(cc1F)C(=O)N(C1CCC(=O)NC1=O)C2=O)c1ccc(C#N)c(Cl)c1 (stereo not drawn) [Compound 164, 2-Chloro-4-((5-(3,5-dimethylisoxazol-4-yl)-2-methylphenyl)(4-((2-(2,6-dioxopiperidin-3)-6-fluoro-1,3-dioxyisoindolin-5-yl)amino)butyl)amino)benzonitrile] | – | > 2000 nM | – | – | 501 to 2000 nM |
